The source of these data is patent publication US10206902B2, “Mono- or di-substituted indoles as dengue viral replication inhibitors” (priority 2014, dated 2019).

Some results are limits rather than exact numbers.

As a reminder, the EC50 is the concentration that produces a half-maximal response. Low readings indicate greater potency, high ones weaker potency.

One experiment has as its system DENV-2 NGC-Tongalike. The experiment is described as follows: Tetravalent RT-qPCR assay Protocol B, serotype 2. Format: cell-based. The following applies: Dengue virus, DENV2, Vero, 96 h. On the procedure: (§1) Vero cells (4×10^4) were seeded in 96-well plates. […] Following a 2 hour incubation period, the cell monolayer was washed 3 times with assay medium to remove residual, non-adsorbed virus and cultures were further incubated for either 4 days (DENV-2 NGC-Tongalike) or 7 days (DENV-1 Djibouti strain D1/H/IMTSSA/98/606, DENV-3 strain H87 prototype, DENV-4 strain H241′) in the presence of the inhibitor. Supernatant was harvested and viral RNA load was determined by real-time quantitative RT-PCR. The 50% effective concentration (EC50), which is defined as the compound concentration that is required to inhibit viral RNA replication by 50%, was determined using logarithmic interpolation (Tables 7 and 8). RNA was isolated from 100 μL supernatant with the NucleoSpin 96 Virus kit (Filter Service, Duren, Germany) as described by the manufacturer. The sequences of the TaqMan primers (DENV-For, DENV-Rev; Table 5) and TaqMan probes (DENV-Probe Table 5) were selected from non-structural gene 3 (NS3) or NS5, of the respective flaviviruses using Primer Express software (version 2.0; Applied Biosystems, Lennik, Belgium). The TaqMan probe was fluorescently labelled with 6-carboxyfluorescein (FAM) at the 5′ end as the reporter dye, and with minor groove binder (MGB) at the 3′ end as the quencher (Table 5). One-step, quantitative RT-PCR was performed in a total volume of 25 μL, containing 13.9375 μL H2O, 6.25 μL master mix (Eurogentec, Seraing, Belgium), 0.375 μL forward primer, 0.375 μL reverse primer, 1 μL probe, 0.0625 μL reverse transcriptase (Eurogentec) and 3 μL sample. RT-PCR was performed using the ABI 7500 Fast Real-Time PCR System (Applied Biosystems, Branchburg, N.J., USA) using the following conditions: 30 min at 48° C. and 10 min at 95° C., followed by 40 cycles of 15 s at 95° C. and 1 min at 60° C. The data was analyzed using the ABI PRISM 7500 SDS software (version 1.3.1; Applied Biosystems). For absolute quantification, standard curves were generated using 10-fold dilutions of template preparations of known concentrations.

Another experiment deals with DENV-2 16681 strain. The experiment is described as follows: DENV-2 antiviral assay (eGFP-labelled virus in Vero cells). The format is cell-based, Dengue virus. The settings on record: DENV-2 16681 eGFP, MOI 0.5, 3 days. How it is done: The antiviral activity of all the compounds of the invention was tested against DENV-2 16681 strain which was labeled with enhanced green fluorescent protein (eGPF). The culture medium consists of minimal essential medium supplemented with 2% of heat-inactivated fetal calf serum, 0.04% gentamycin (50 mg/mL) and 2 mM of L-glutamine. Vero cells, obtained from ECACC, were suspended in culture medium and 25 μL was added to 384-well plates (2500 cells/well), which already contain the antiviral compounds. Typically, these plates contain a 4-fold serial dilution of 9 dilution steps of the test compound at 200 times the final concentration in 100% DMSO (200 nL). In addition, each compound concentration is tested in quadruplicate (final concentration range: 25 μM-0.00038 μM). Finally, each plate contains wells which are assigned as virus controls (containing cells and virus in the absence of compound), cell controls (containing cells in the absence of virus and compound) and medium controls (containing medium in the absence of cells, virus and compounds). To the wells assigned as medium control, 25 μL of culture medium was added instead of Vero cells. Once the cells were added to the plates, the plates were incubated for 30 minutes at room temperature to allow the cells to distribute evenly within the wells. Next, the plates were incubated in a fully humidified incubator (37° C., 5% CO2) until the next day. Then, DENV-2 strain 16681, labeled with eGFP, was added at a multiplicity of infection (MOI) of 0.5. Therefore, 15 μL of virus suspension was added to all the wells containing test compound and to the wells assigned as virus control. In parallel, 15 μL of culture medium was added to the medium and cell controls. Next, the plates were incubated for 3 days in a fully humidified incubator (37° C., 5% CO2). At the day of the read out, the eGFP fluorescence was measured using an automated fluorescence microscope at 488 nm (blue laser). Using an in-house LIMS system, inhibition dose response curves for each compound were calculated and the half maximal effective concentration (EC50) was determined. Therefore, the percent inhibition (I) for every test concentration is calculated using the following formula: I=100*(ST−SCC)/(SVC−SCC); ST, SCC and SVC are the amount of eGFP signal in the test compound, cell control and virus control wells, respectively. The EC50 represents the concentration of a compound at which the virus replication is inhibited with 50%, as measured by a 50% reduction of the eGFP fluorescent intensity compared to the virus control. The EC50 is calculated using linear interpolation (Table 1).

Experiment [1] concerns DENV-3 strain H87 prototype. Description: Tetravalent RT-qPCR assay Protocol B, serotype 3. The format is cell-based. The settings on record: Dengue virus, DENV3, 168 h, RT-qPCR serotype 3 H87, Vero cells, 7 days. How it is done:
as §1

For the molecule `COc1cc(NC(C(=O)c2c[nH]c3cc(F)ccc23)c2ccc(F)cc2OC)cc(OCCO)c1` (single isomer, unassigned) [Compound 1A, 1-(6-fluoro-1H-indol-3-yl)-2-(4-fluoro-2-methoxyphenyl)-2-((3-(2-hydroxyethoxy)-5-methoxyphenyl)amino)ethanone], the concentration for a half-maximal effect (EC50) turned out to be 1 nM in the experiment with DENV-2 NGC-Tongalike, 3.8 nM in the experiment with DENV-2 16681 strain and 53 nM in experiment [1].
For `COc1cc(NC(C(=O)c2c[nH]c3c(C)c(F)ccc23)c2ccc(F)cc2OC)cc(OCCO)c1` (single isomer, unassigned) [Compound 2B, 2-(4-fluoro-2-methoxyphenyl)-1-(6-fluoro-7-methyl-1H-indol-3-yl)-2-((3-(2-hydroxyethoxy)-5-methoxyphenyl)amino)ethanone], in that order: 0.81 nM, 2.2 nM and 42 nM.
`COc1cc(NC(C(=O)c2c[nH]c3c(C)c(Cl)ccc23)c2ccc(F)cc2OC)cc(OCCO)c1` (single isomer, unassigned) [Compound 3A, 1-(6-chloro-7-methyl-1H-indol-3-yl)-2-(4-fluoro-2-methoxyphenyl)-2-((3-(2-hydroxyethoxy)-5-methoxyphenyl)amino)ethanone]: the EC50 with DENV-2 NGC-Tongalike is < 0.28 nM; with DENV-2 16681 strain, 0.77 nM; in experiment [1] it was 32 nM.
For `COc1cc(NC(C(=O)c2c[nH]c3cc(Cl)ccc23)c2ccc(F)cc2OC)cc(OCCO)c1` (single isomer, unassigned) [Compound 4A, 1-(6-chloro-1H-indol-3-yl)-2-(4-fluoro-2-methoxyphenyl)-2-((3-(2-hydroxyethoxy)-5-methoxyphenyl)amino)ethanone] the same measures were < 0.29 nM, 1.6 nM and 16 nM.
In the case of `COc1cc(NC(C(=O)c2c[nH]c3c(F)c(F)ccc23)c2ccc(F)cc2OC)cc(OCCO)c1` (single isomer, unassigned) [Compound 5B, 1-(6,7-difluoro-1H-indol-3-yl)-2-(4-fluoro-2-methoxyphenyl)-2-((3-(2-hydroxyethoxy)-5-methoxyphenyl)amino)ethanone], the half-maximal effective concentration (EC50) in the experiment on DENV-2 NGC-Tongalike was 0.44 nM; with DENV-2 16681 strain, 2.5 nM; in experiment [1], 50 nM.
Regarding `COc1cc(NC(C(=O)c2c[nH]c3cc(OC)c(C)cc23)c2ccc(F)cc2OC)cc(OCCO)c1` (single isomer, unassigned) [Compound 6A, 2-(4-fluoro-2-methoxyphenyl)-2-((3-(2-hydroxyethoxy)-5-methoxyphenyl)amino)-1-(6-methoxy-5-methyl-1H-indol-3-yl)ethanone], the concentration for a half-maximal effect (EC50) in the experiment with DENV-2 NGC-Tongalike was < 0.35 nM; in the experiment with DENV-2 16681 strain it was 2.7 nM; in experiment [1], 20 nM.
As to `COc1cc(NC(C(=O)c2c[nH]c3cc(OC)c(F)cc23)c2ccc(F)cc2OC)cc(OCCO)c1` (single isomer, unassigned) [Compound 7A, 2-(4-fluoro-2-methoxyphenyl)-1-(5-fluoro-6-methoxy-1H-indol-3-yl)-2-((3-(2-hydroxyethoxy)-5-methoxyphenyl)amino)ethanone], the EC50 in the experiment with DENV-2 NGC-Tongalike was 1.6 nM; with DENV-2 16681 strain, 4.6 nM; in experiment [1], 41 nM.
For `COc1cc(NC(C(=O)c2c[nH]c3c(Cl)c(OC)ccc23)c2ccc(F)cc2OC)cc(OCCO)c1` (single isomer, unassigned) [Compound 8A, 1-(7-chloro-6-methoxy-1H-indol-3-yl)-2-(4-fluoro-2-methoxyphenyl)-2-((3-(2-hydroxyethoxy)-5-methoxyphenyl)amino)ethanone] the same measures were < 0.24 nM, 1 nM and 29 nM.
Turning to `COc1cc(NC(C(=O)c2c[nH]c3c(C)cc(F)cc23)c2ccc(F)cc2OC)cc(OCCO)c1` (single isomer, unassigned) [Compound 9B, 2-(4-fluoro-2-methoxyphenyl)-1-(5-fluoro-7-methyl-1H-indol-3-yl)-2-((3-(2-hydroxyethoxy)-5-methoxyphenyl)amino)ethanone], the half-maximal effective concentration (EC50) with DENV-2 NGC-Tongalike was 0.8 nM; with DENV-2 16681 strain it was 3.4 nM; in experiment [1], 66 nM.
With `COc1cc(NC(C(=O)c2c[nH]c3cc(F)c(F)cc23)c2ccc(F)cc2OC)cc(OCCO)c1` (single isomer, unassigned) [Compound 10B, 1-(5,6-difluoro-1H-indol-3-yl)-2-(4-fluoro-2-methoxy-phenyl)-2-((3-(2-hydroxyethoxy)-5-methoxyphenyl)amino)ethanone], the values for the EC50 (in the experiment with DENV-2 NGC-Tongalike; in the experiment on DENV-2 16681 strain; in experiment [1]) were 1.6 nM, 2.7 nM and < 22 nM, respectively.
For the molecule `COc1cc(NC(C(=O)c2c[nH]c3c(C)c(OC)ccc23)c2ccc(F)cc2OC)cc(OCCO)c1` (single isomer, unassigned) [Compound 11A, 2-(4-fluoro-2-methoxyphenyl)-2-((3-(2-hydroxyethoxy)-5-methoxyphenyl)amino)-1-(6-methoxy-7-methyl-1H-indol-3-yl)ethanone], the EC50 turned out to be 0.68 nM in the experiment with DENV-2 NGC-Tongalike, 0.81 nM in the experiment on DENV-2 16681 strain and 40 nM in experiment [1].
Consider `COc1cc(NC(C(=O)c2c[nH]c3c(F)cc(C)cc23)c2ccc(F)cc2OC)cc(OCCO)c1` (single isomer, unassigned) [Compound 12B, 2-(4-fluoro-2-methoxyphenyl)-1-(7-fluoro-5-methyl-1H-indol-3-yl)-2-((3-(2-hydroxyethoxy)-5-methoxyphenyl)amino)ethanone], for which the half-maximal effective concentration (EC50) with DENV-2 NGC-Tongalike came out at 1.7 nM; with DENV-2 16681 strain, 5.1 nM; in experiment [1], 77 nM.
